Source: ChEMBL document CHEMBL1201862, “PubChem BioAssay data set” (2004)
“And” between values parts separate entries of the source, which are not always exact repeats. Identical values can stand only once.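 How tested: cells in 96-well plates exposed to compound for 48 hours at five concentrations. Abbreviation: GI50, concentration required for 50% inhibition of growth.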 The source made the active and inactive calls. No stated cut-off is given here; in the data, active = GI50 up to about 1.1 µM and inactive = higher.

Legend:
Experiment in all cases: NCI tumour cell line growth inhibition, 48 h
[1] = tested on: DMS-114
[2] = tested on: DU-145
[3] = tested on: HOP-62
[4] = tested on: Hs-578T
[5] = tested on: MCF7
[6] = tested on: MDA-MB-231
[7] = tested on: MDA-N
[8] = tested on: NCI/ADR-RES
[9] = tested on: PC-3
[10] = tested on: RXF 631
[11] = tested on: SK-OV-3
[12] = tested on: T47D
[13] = tested on: 786-0
[14] = tested on: A498
[15] = tested on: A549
[16] = tested on: ACHN
[17] = tested on: CAKI-1
[18] = tested on: CCRF-CEM
[19] = tested on: COLO 205
[20] = tested on: DLD-1
[21] = tested on: DMS-273
[22] = tested on: EKVX
[23] = tested on: HCC 2998
[24] = tested on: HCT-116
[25] = tested on: HCT-15
[26] = tested on: HL-60
[27] = tested on: HOP-18
[28] = tested on: HOP-92
[29] = tested on: HT-29
[30] = tested on: IGROV-1
[31] = tested on: K562
[32] = tested on: KM-20L2
[33] = tested on: KM12
[34] = tested on: LOX IMVI
[35] = tested on: LXFL 529
[36] = tested on: M14
[37] = tested on: MOLT-4
[38] = tested on: Malme-3M
[39] = tested on: NCI-H226
[40] = tested on: NCI-H23
[41] = tested on: NCI-H460
[42] = tested on: NCI-H522
[43] = tested on: OVCAR-3
[44] = tested on: OVCAR-4
[45] = tested on: OVCAR-5
[46] = tested on: OVCAR-8
[47] = tested on: RPMI-8226
[48] = tested on: RXF 393
[49] = tested on: SF-268
[50] = tested on: SF-295
[51] = tested on: SF-539
[52] = tested on: SK-MEL-28
[53] = tested on: SK-MEL-2
[54] = tested on: SK-MEL-5
[55] = tested on: SN12C
[56] = tested on: SNB-19
[57] = tested on: SNB-75
[58] = tested on: SNB-78
[59] = tested on: SW-620
[60] = tested on: TK-10
[61] = tested on: U-251
[62] = tested on: UACC-257
[63] = tested on: UACC-62
[64] = tested on: UO-31
[65] = tested on: M19-MEL
[66] = tested on: SR
[67] = tested on: XF498

Measured: GI50

CC1(C)CC[C@H](C2=CC(=O)c3c(O)ccc(O)c3C2=O)O1
inactive: [2] 2.4 µM and 2.09 µM | [3] 4.61 µM and 2.72 µM | [4] 2.64 µM and 2.74 µM | [6] 2.44 µM and 1.48 µM | [8] 2790 nM | [9] 2.86 µM and 1.71 µM | [10] 1150 nM | [11] 8.05 µM and 4.24 µM
active: [1] 359 nM and 200 nM | [5] 173 nM and 216 nM | [7] 577 nM and 904 nM | [12] 460 nM and 470 nM

COc1cc([C@@H]2c3cc4c(cc3[C@@H](NC(=O)c3cccc(C#N)c3)C3COC(=O)[C@@H]32)OCO4)cc(OC)c1O (stereo not given in full)
inactive: [14] 1260 nM | [19] 2960 nM | [20] 2000 nM | [22] 1360 nM | [23] 1840 nM | [27] > 100000 nM | [29] 1850 nM | [31] 1730 nM | [32] 1630 nM | [33] 1390 nM | [35] 5930 nM | [37] 15100 nM | [43] 2750 nM | [44] 16700 nM | [46] 1190 nM | [47] 7140 nM | [48] 3180 nM | [10] 1560 nM | [49] 1320 nM | [52] 2920 nM | [53] 3550 nM | [58] 9330 nM | [60] 3290 nM | [62] 6170 nM | [64] 5470 nM
3810 nM: [25]
active: [13] 703 nM | [15] 17.8 nM | [16] 182 nM | [17] 678 nM | [18] 84.1 nM | [21] 84.7 nM | [24] 1100 nM | [26] 166 nM | [3] 172 nM | [28] 498 nM | [30] 1050 nM | [34] 398 nM | [36] 1110 nM | [38] 650 nM | [39] 67.1 nM | [40] 214 nM | [41] < 10 nM | [42] 908 nM | [45] 1100 nM | [50] 372 nM | [51] 141 nM | [54] 815 nM | [11] 912 nM | [55] 229 nM | [56] 404 nM | [57] 433 nM | [59] 583 nM | [61] 155 nM | [63] 308 nM

COc1cc2nc(-c3cccc(N(C)C)c3)cc(O)c2cc1OC
inactive: [13] 3570 nM | [14] 6030 nM | [15] 4060 nM | [16] 14500 nM | [18] 3870 nM | [19] 3850 nM | [20] 4500 nM | [1] 4.73 µM | [21] 3850 nM | [22] 16500 nM | [23] 2390 nM | [24] 4800 nM | [26] 2700 nM | [27] 3270 nM | [3] 3020 nM | [28] > 100000 nM | [29] 3200 nM | [30] 7110 nM | [31] 3620 nM | [32] 2110 nM | [33] 3310 nM | [34] 6790 nM | [35] 5220 nM | [36] 2070 nM | [65] 5550 nM | [37] 5190 nM | [38] 2230 nM | [39] 3580 nM | [40] 3540 nM | [41] 3940 nM | [42] 2810 nM | [43] 1520 nM | [44] > 100000 nM | [45] 5180 nM | [46] 6030 nM | [47] 3650 nM | [48] 2210 nM | [49] 16600 nM | [50] 2580 nM | [51] 2660 nM | [54] 4360 nM | [11] 3700 nM | [55] 7670 nM | [56] 4980 nM | [58] 5830 nM | [66] 5140 nM | [59] 4090 nM | [60] > 100000 nM | [62] 5280 nM | [63] 3440 nM | [64] 5650 nM | [67] 6320 nM
2990 nM: [25]
